Measured values reported in patent US6346543B1, “Use of a taxoid to treat abnormal cell proliferation in the brain” (priority 1998, dated 2002).
“And” between values parts separate entries of the source, which are not always exact repeats. Equal values may be shown once.

Tested on: intracranially implanted human glioblastoma SF-295
Experiment: Antitumor activity against intracranially implanted SF-295 glioblastoma in NCr-nu mice (RP-38)
Type: in vivo
Conditions: for DAYS OF DEATH: individual animals
From the text: Four studies were initiated to evaluate the response of U251 and SF-295 glioblastomas to treatment with product (Ia). In the two studies, U251 and SF-295 glioblastomas were initiated from intracranially implanted cells at a volume of 10^6 cells per mouse. The treatment schedule of the intracranially implanted U251 glioblastoma cells was iv, once daily, every sixth day for three treatments (q6d×3), beginning on day four post-implant. The treatment schedule of the intracranially implanted SF-295 glioblastoma cells was iv, once daily, every fourth day for three treatments (q4d×3), beginning on day two post-implant. For the intracranially implanted studies, the compounds were evaluated based on their ability to increase the life span of the animals. The positive control used for both of these tumor models was nitrosourea.
In these experiments, general DCTD, NCI techniques and procedures for in vivo efficacy studies were modified for special application (In Vivo Cancer Models, NIH Publication No. 84-2635, 1984). These studies were conducted in approved facilities (AAALAC Registration No. 000643, AALAS Membership No. 840723001, USDA Registration No. 64-R-001, OPPR, PHS, NIH, AWA, Assurance No. A3046-01). These facilities are ISO 9001 certified. The oversight committee was the Southern Research Institutional Animal Care and Use Committee; the protocol used was IACUC No. 96-8-50.
Product (Ia) was prepared in 5% ethanol, 5% tween 80, 90% D5W
Nitrosourea was prepared in 2% ethanol, 98% physiological saline.
Product (Ia) was administered in 0.4 ml/mouse based on a total body weight average.
Nitrosourea was administered 0.1 ml/10 g of body weight.
Any intracranially implanted animal that appeared to be moribund was euthanized for humane purposes. Since efficacy studies fall within this category of basic research, experiment termination was based on resultants that were determined to be optimal.
Six to eight week old athymic NCr-nu female mice were used for the intracranially implanted U251 trials. Six to eight week old athymic NCr-nu male mice were used for the intracranially implanted SF-295 trials.
As previously mentioned, this experiment was designed to evaluate the activity of product (Ia) against intracranially U251 and SF-295 glioblastomas in athymic MCr-nu mice. The dosages for product (Ia) were 30, 20 and 13.4 mg/kg/dose. For the two intracranially implanted experiments, cells were prepared at a concentration of 3.33×10^7 cells per ml of media and injected at a volume of 0.03 ml per mouse. The cells were injected into the cerebrum to the right of the midline with a 25 gauge, ⅜ inch, stainless steel needle. Cultured cells were used for the U251 experiment (RP-36). The treatment schedule was q6d×3, iv, beginning on day four, post-implant. A tumor brei, made from solid tumor, was used for the SF-295 experiment (RP-38). The treatment schedule was q4d×3, iv, beginning on day two, post-implant. Nitrosourea was given in each experiment for comparative purposes because of its known activity against CNS tumors. The dosages were 27, 18 and 12 mg/kg/dose and the treatment schedule was the same as the treatment schedule for product (Ia) in each experiment.

[1] = 13.4 mg/kg/dose IV Q4D×3(2), listed as product (Ia)

With `CO[C@H]1C(=O)[C@]2(C)[C@@H](OC)C[C@H]3OC[C@@]3(OC(C)=O)[C@H]2[C@H](OC(=O)c2ccccc2)[C@]2(O)C[C@H](OC(=O)[C@H](O)[C@@H](NC(=O)OC(C)(C)C)c3ccccc3)C(C)=C1C2(C)C` [Product (Ia), 4α-acetoxy-2α-benzoyloxy-5β, 20-epoxy-1β-hydroxy-7β, 10β-dimethoxy-9-oxo-11-taxen-13α-yl (2R,3S)-3 tert-butoxycarbonylamino-2-hydroxy-3-phenylpropionate] the “68 DAY SURV./TOTAL” value (13.4 mg/kg/dose IV Q4D×3(2)) was 1/10, the “% ILS” value (13.4 mg/kg/dose IV Q4D×3(2)) was “+81%” and the “MEDIAN DAY OF DEATH” value (13.4 mg/kg/dose IV Q4D×3(2)) was 29.0 days. For the same compound, the “MEAN ANIMAL WEIGHT” value (13.4 mg/kg/dose IV Q4D×3(2), day 2) was 25 GRAMS, the “MEAN ANIMAL WEIGHT” value (13.4 mg/kg/dose IV Q4D×3(2), day 5) was 24 GRAMS and the “MEAN ANIMAL WEIGHT” value (13.4 mg/kg/dose IV Q4D×3(2), day 8) was 23 GRAMS. The “MEAN ANIMAL WEIGHT” value (13.4 mg/kg/dose IV Q4D×3(2), day 13) was 22 GRAMS, the “MEAN ANIMAL WEIGHT” value (13.4 mg/kg/dose IV Q4D×3(2), day 15) was 20 GRAMS and the “MEAN ANIMAL WEIGHT” value (13.4 mg/kg/dose IV Q4D×3(2), day 19) was 21 GRAMS. The “MEAN ANIMAL WEIGHT” value (13.4 mg/kg/dose IV Q4D×3(2), day 22) was 22 GRAMS, the “MEAN ANIMAL WEIGHT” value (13.4 mg/kg/dose IV Q4D×3(2), day 26) was 21 GRAMS and the “MEAN ANIMAL WEIGHT” value (13.4 mg/kg/dose IV Q4D×3(2), day 29) was 22 GRAMS. The “MEAN ANIMAL WEIGHT” value (13.4 mg/kg/dose IV Q4D×3(2), day 33) was 22 GRAMS, the “MEAN ANIMAL WEIGHT” value (13.4 mg/kg/dose IV Q4D×3(2), day 37) was 26 GRAMS and the “MEAN ANIMAL WEIGHT” value (13.4 mg/kg/dose IV Q4D×3(2), day 40) was 22 GRAMS. The “MEAN ANIMAL WEIGHT” value (13.4 mg/kg/dose IV Q4D×3(2), day 43) was 27 GRAMS, the “DAYS OF DEATH” value (13.4 mg/kg/dose IV Q4D×3(2)) was 34 day and 41 day and 25 day (2×) and 29 day (3×) and 30 day and 32 day and the “68 DAY SURV./TOTAL” value [1] was “one 68-day survivor out of ten animals”. The “% ILS” value [1] was 81%, the “mean weight loss through the treatment period” value (20 mg/kg dose iv q4d×3) was 6 g and the “68 DAY SURV./TOTAL” value (20.0 mg/kg/dose IV Q4D×3(2)) was 0/10. The “% ILS” value (20.0 mg/kg/dose IV Q4D×3(2)) was “+94%”, the “MEDIAN DAY OF DEATH” value (20.0 mg/kg/dose IV Q4D×3(2)) was 31.0 days and the “MEAN ANIMAL WEIGHT” value (20.0 mg/kg/dose IV Q4D×3(2), day 2) was 25 GRAMS. For the same compound, the “MEAN ANIMAL WEIGHT” value (20.0 mg/kg/dose IV Q4D×3(2), day 5) was 24 GRAMS, the “MEAN ANIMAL WEIGHT” value (20.0 mg/kg/dose IV Q4D×3(2), day 8) was 21 GRAMS and the “MEAN ANIMAL WEIGHT” value (20.0 mg/kg/dose IV Q4D×3(2), day 13) was 19 GRAMS. The “MEAN ANIMAL WEIGHT” value (20.0 mg/kg/dose IV Q4D×3(2), day 15) was 18 GRAMS, the “MEAN ANIMAL WEIGHT” value (20.0 mg/kg/dose IV Q4D×3(2), day 19) was 19 GRAMS and the “MEAN ANIMAL WEIGHT” value (20.0 mg/kg/dose IV Q4D×3(2), day 22) was 21 GRAMS. The “MEAN ANIMAL WEIGHT” value (20.0 mg/kg/dose IV Q4D×3(2), day 26) was 22 GRAMS, the “MEAN ANIMAL WEIGHT” value (20.0 mg/kg/dose IV Q4D×3(2), day 29) was 19 GRAMS and the “MEAN ANIMAL WEIGHT” value (20.0 mg/kg/dose IV Q4D×3(2), day 33) was 23 GRAMS. For the same compound, the “MEAN ANIMAL WEIGHT” value (20.0 mg/kg/dose IV Q4D×3(2), day 37) was 29 GRAMS, the “MEAN ANIMAL WEIGHT” value (20.0 mg/kg/dose IV Q4D×3(2), day 40) was 29 GRAMS and the “MEAN ANIMAL WEIGHT” value (20.0 mg/kg/dose IV Q4D×3(2), day 43) was 29 GRAMS. For the same compound, the “DAYS OF DEATH” value (20.0 mg/kg/dose IV Q4D×3(2)) was 33 day (2×) and 37 day and 54 day and 13 day (2×) and 16 day and 31 day (3×), the “% ILS” value (20.0 mg/kg/dose IV Q4D×3(2), listed as product (Ia)) was 94% and the “mean weight loss through the treatment period” value (30 mg/kg dose iv q4d×3) was 7 g. For the same compound, the “68 DAY SURV./TOTAL” value (30.0 mg/kg/dose IV Q4D×3(2)) was 0/10, the “% ILS” value (30.0 mg/kg/dose IV Q4D×3(2)) was −9% and the “MEDIAN DAY OF DEATH” value (30.0 mg/kg/dose IV Q4D×3(2)) was 14.5 days. The “MEAN ANIMAL WEIGHT” value (30.0 mg/kg/dose IV Q4D×3(2), day 2) was 25 GRAMS, the “MEAN ANIMAL WEIGHT” value (30.0 mg/kg/dose IV Q4D×3(2), day 5) was 23 GRAMS and the “MEAN ANIMAL WEIGHT” value (30.0 mg/kg/dose IV Q4D×3(2), day 8) was 18 GRAMS. For the same compound, the “MEAN ANIMAL WEIGHT” value (30.0 mg/kg/dose IV Q4D×3(2), day 13) was 18 GRAMS, the “MEAN ANIMAL WEIGHT” value (30.0 mg/kg/dose IV Q4D×3(2), day 15) was 19 GRAMS and the “MEAN ANIMAL WEIGHT” value (30.0 mg/kg/dose IV Q4D×3(2), day 19) was 19 GRAMS. For the same compound, the “MEAN ANIMAL WEIGHT” value (30.0 mg/kg/dose IV Q4D×3(2), day 22) was 21 GRAMS, the “MEAN ANIMAL WEIGHT” value (30.0 mg/kg/dose IV Q4D×3(2), day 26) was 21 GRAMS and the “MEAN ANIMAL WEIGHT” value (30.0 mg/kg/dose IV Q4D×3(2), day 29) was 19 GRAMS. The “MEAN ANIMAL WEIGHT” value (30.0 mg/kg/dose IV Q4D×3(2), day 33) was 20 GRAMS, the “MEAN ANIMAL WEIGHT” value (30.0 mg/kg/dose IV Q4D×3(2), day 37) was 18 GRAMS and the “MEAN ANIMAL WEIGHT” value (30.0 mg/kg/dose IV Q4D×3(2), day 40) was 21 GRAMS. For the same compound, the “MEAN ANIMAL WEIGHT” value (30.0 mg/kg/dose IV Q4D×3(2), day 43) was 17 GRAMS, the “DAYS OF DEATH” value (30.0 mg/kg/dose IV Q4D×3(2)) was 40 day and 41 day and 47 day and 11 day and 13 day (2×) and 14 day (2×) and 15 day and 30 day and the “activity against intracranially implanted SF-295 glioblastoma” value (iv q4d×3) was “quite active”. For the same compound, the MTD (iv q4d×3, SF-295 experiment RP-38) was 13.4 mg/kg/dose.
